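The compound was tested at five concentrations on cells cultured in 96-well plates, with a 48-hour exposure period. GI50 = concentration required for 50% inhibition of growth.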 Calls of active or inactive are those of the source. Cut-off read from the data, not from the text of the source: active = GI50 up to about 1.1 µM and inactive = higher.
Tests used:
Test in all cases: NCI tumour cell line growth inhibition, 48 h
OVCAR-3 = test system: OVCAR-3
PC-3 = test system: PC-3
HT-29 = test system: HT-29
A498 = test system: A498
MCF7 = test system: MCF7
CCRF-CEM = test system: CCRF-CEM
Malme-3M = test system: Malme-3M
U-251 = test system: U-251
ACHN = test system: ACHN
MOLT-4 = test system: MOLT-4
OVCAR-4 = test system: OVCAR-4
A549 = test system: A549
T47D = test system: T47D
IGROV-1 = test system: IGROV-1
SR = test system: SR
MDA-N = test system: MDA-N
UO-31 = test system: UO-31
HCT-15 = test system: HCT-15
UACC-62 = test system: UACC-62
UACC-257 = test system: UACC-257

Structure (SMILES)	GI50 (OVCAR-3)	GI50 (PC-3)	GI50 (HT-29)	GI50 (A498)	GI50 (MCF7)	GI50 (CCRF-CEM)	GI50 (Malme-3M)	GI50 (U-251)	GI50 (ACHN)	GI50 (MOLT-4)	GI50 (OVCAR-4)	GI50 (A549)	GI50 (T47D)	GI50 (IGROV-1)	GI50 (SR)	GI50 (MDA-N)	GI50 (UO-31)	GI50 (HCT-15)	GI50 (UACC-62)	GI50 (UACC-257)
N=C(N)NNC(=O)C(=O)O	> 100 µM (inactive)	> 100 µM (inactive)	> 100 µM (inactive)	> 100 µM (inactive)	> 100 µM (inactive)	> 100 µM (inactive)	> 100 µM (inactive)	> 100 µM (inactive)	> 100 µM (inactive)	> 100 µM (inactive)	> 100 µM (inactive)	> 100 µM (inactive)	> 100 µM (inactive)	> 100 µM (inactive)	> 100 µM (inactive)	> 100 µM (inactive)	> 100 µM (inactive)	> 100 µM	> 100 µM (inactive)	> 100 µM (inactive)
NC1=C(Cl)C(=O)c2ccccc2C1=O	2.45 µM (inactive)	1.79 µM (inactive)	4.99 µM (inactive)	19.9 µM (inactive)	2.06 µM (inactive)	5.15 µM (inactive)	1.38 µM (inactive)	4.34 µM (inactive)	9.27 µM (inactive)	5.7 µM (inactive)	7.08 µM (inactive)	2.93 µM (inactive)	2.87 µM (inactive)	9.82 µM (inactive)	4.32 µM (inactive)	1.63 µM (inactive)	13.7 µM (inactive)	3.46 µM	1.08 µM (active)	2.57 µM (inactive)
COc1cc(OC)c2c(O)c3c(cc2c1)CC(C)(C)CC3=O	> 74.1 µM (inactive)	> 100 µM (inactive)	5.96 µM (inactive)	> 100 µM (inactive)	> 100 µM (inactive)	> 63.1 µM (inactive)	48.5 µM (inactive)	56.5 µM (inactive)	> 100 µM (inactive)	> 76.6 µM (inactive)	32.1 µM (inactive)	> 100 µM (inactive)	> 100 µM (inactive)	> 100 µM (inactive)	> 26.7 µM (inactive)	> 64 µM (inactive)	> 100 µM (inactive)	> 100 µM	90.6 µM (inactive)	> 100 µM (inactive)
Cc1ccc(C(=O)N2CCN(C(=O)c3ccc(C)cc3)c3ccccc32)cc1	2.74 µM (inactive)	2.86 µM (inactive)	2.8 µM (inactive)	5.2 µM (inactive)	2.48 µM (inactive)	1.6 µM (inactive)	2.84 µM (inactive)	1.9 µM (inactive)	9.59 µM (inactive)	3.07 µM (inactive)	11.4 µM (inactive)	7.48 µM (inactive)	6.43 µM (inactive)	4.91 µM (inactive)	0.547 µM (active)	0.274 µM (active)	4.76 µM (inactive)	1.94 µM	2.01 µM (inactive)	4.56 µM (inactive)
CC1=NN(C(=O)CC(=O)Nc2ccccc2)C(=O)C1/N=N/c1ccc(C(=O)O)cc1 (stereo not given)	> 100 µM (inactive)	> 100 µM (inactive)	> 100 µM (inactive)	> 100 µM (inactive)	> 100 µM (inactive)	> 100 µM (inactive)	> 100 µM (inactive)	97.3 µM (inactive)	> 100 µM (inactive)	> 100 µM (inactive)	> 100 µM (inactive)	> 100 µM (inactive)	62.7 µM (inactive)	> 100 µM (inactive)	50.6 µM (inactive)	> 100 µM (inactive)	> 100 µM (inactive)	> 100 µM	> 100 µM (inactive)	> 100 µM (inactive)
[N-]=[N+]=Nc1ccc2c(c1)Sc1ccccc1N2CCCCCl	82.2 µM (inactive)	41.3 µM (inactive)	20.1 µM (inactive)	> 100 µM (inactive)	14.9 µM (inactive)	36.7 µM (inactive)	37.1 µM (inactive)	23.7 µM (inactive)	> 100 µM (inactive)	22 µM (inactive)	80.4 µM (inactive)	35.2 µM (inactive)	44.7 µM (inactive)	> 100 µM (inactive)	30.9 µM (inactive)	48.4 µM (inactive)	> 100 µM (inactive)	81.3 µM	99.8 µM (inactive)	71.9 µM (inactive)
N#CS/C(C(Cl)=C(Cl)Cl)=C(/Cl)[N+](=O)[O-]	1.53 µM (inactive)	5.33 µM (inactive)	1.9 µM (inactive)	17.1 µM (inactive)	3.9 µM (inactive)	0.284 µM (active)	1.58 µM (inactive)	14.1 µM (inactive)	1.64 µM (inactive)	0.6 µM (active)	1.95 µM (inactive)	21 µM (inactive)	1.99 µM (inactive)	2.32 µM (inactive)	0.778 µM (active)	1.8 µM (inactive)	1.63 µM (inactive)	2.32 µM	4.26 µM (inactive)	1.75 µM (inactive)
CC(O)C1(O)C(O)CC(OC2c3cc4c(c(O)c3[C@@H]3C[C@@]2(C)OC32C=c3cc[nH]c3=N2)C(=O)c2cccc(O)c2C4=O)OC1C (stereo not given in full)	1.08 µM (active)	1.23 µM (inactive)	0.644 µM (active)	1.29 µM (inactive)	0.762 µM (active)	0.34 µM (active)	0.938 µM (active)	1.53 µM (inactive)	0.759 µM (active)	0.334 µM (active)	2.38 µM (inactive)	0.433 µM (active)	3.1 µM (inactive)	0.592 µM (active)	0.287 µM (active)	1.81 µM (inactive)	1.77 µM (inactive)	2.03 µM	1.31 µM (inactive)	1.48 µM (inactive)
CC(=O)c1c2c(cc3c1CCC3)CCC2	> 100 µM (inactive)	55.3 µM (inactive)	> 100 µM (inactive)	36.5 µM (inactive)	> 100 µM (inactive)	40.7 µM (inactive)	> 100 µM (inactive)	> 100 µM (inactive)	> 100 µM (inactive)	20.6 µM (inactive)	69.7 µM (inactive)	> 100 µM (inactive)	15.4 µM (inactive)	> 100 µM (inactive)	> 100 µM (inactive)	> 100 µM (inactive)	54.5 µM (inactive)	> 100 µM	> 100 µM (inactive)	> 100 µM (inactive)
Nc1nc(Sc2ccc([N+](=O)[O-])cn2)c2nc[nH]c2n1	8.93 µM (inactive)	14 µM (inactive)	4.86 µM (inactive)	11.8 µM (inactive)	5.89 µM (inactive)	2.77 µM (inactive)	11.4 µM (inactive)	15.7 µM (inactive)	12.3 µM (inactive)	4.56 µM (inactive)	9.18 µM (inactive)	15.1 µM (inactive)	4.36 µM (inactive)	14.5 µM (inactive)	3.46 µM (inactive)	3.61 µM (inactive)	3.99 µM (inactive)	9.55 µM	2.94 µM (inactive)	18 µM (inactive)
ONCCCn1cnc2c(NC3CC3)ncnc21	> 100 µM (inactive)	> 100 µM (inactive)	> 100 µM (inactive)	> 100 µM (inactive)	> 100 µM (inactive)	> 100 µM (inactive)	> 100 µM (inactive)	> 100 µM (inactive)	> 100 µM (inactive)	> 100 µM (inactive)	> 100 µM (inactive)	> 100 µM (inactive)	> 100 µM (inactive)	> 100 µM (inactive)	> 100 µM (inactive)	> 100 µM (inactive)	> 100 µM (inactive)	> 100 µM	> 100 µM (inactive)	> 100 µM (inactive)
CCC/C(Cl)=N/OC(NC(=O)OCC)(C(F)(F)F)C(F)(F)F	15.8 µM (inactive)	98.9 µM (inactive)	22.4 µM (inactive)	> 100 µM (inactive)	23.6 µM (inactive)	22.1 µM (inactive)	15.4 µM (inactive)	> 100 µM (inactive)	18.3 µM (inactive)	32.5 µM (inactive)	17.6 µM (inactive)	> 100 µM (inactive)	45.4 µM (inactive)	16.6 µM (inactive)	23.1 µM (inactive)	20.5 µM (inactive)	19.6 µM (inactive)	21.6 µM	48.1 µM (inactive)	20.6 µM (inactive)
Cc1ccc(C(=O)CC(O)(C(F)(F)F)C(F)(F)F)cc1[N+](=O)[O-]	2.2 µM (inactive)	11.3 µM (inactive)	1.87 µM (inactive)	21.3 µM (inactive)	3.14 µM (inactive)	4.63 µM (inactive)	16.3 µM (inactive)	14.2 µM (inactive)	15.5 µM (inactive)	16.7 µM (inactive)	15.8 µM (inactive)	11.1 µM (inactive)	13.5 µM (inactive)	5.05 µM (inactive)	5.73 µM (inactive)	10.2 µM (inactive)	5.81 µM (inactive)	3.92 µM	8.55 µM (inactive)	3.21 µM (inactive)
Nc1ccc(-c2nc3cc(F)ccc3s2)cc1Cl	0.049 µM (active)	20 µM (inactive)	0.692 µM (active)	3.07 µM (inactive)	0.0102 µM (active)	> 22.9 µM (inactive)	20.1 µM (inactive)	20 µM (inactive)	1.57 µM (inactive)	> 35.6 µM (inactive)	17.1 µM (inactive)	7.46 µM (inactive)	0.0615 µM (active)	< 0.01 µM (active)	0.0382 µM (active)	> 100 µM (inactive)	31.8 µM (inactive)	0.134 µM	39.7 µM (inactive)	72.6 µM (inactive)

Source: ChEMBL document CHEMBL1201862, “PubChem BioAssay data set” (2004)
